The record followed here is patent US20090118366A1, “ORGANIC COMPOUNDS” (Nabriva Therapeutics Forschungs GmbH, priority 2007, published 2009).

The data set concerns cryopreserved primary human hepatocytes. In words: Metabolic stability in cryopreserved primary human hepatocytes. The format is in vitro ADME. As to conditions: 4 h incubation with human hepatocytes, compound concentration 5 μg/mL, 37° C., LC/MS. The procedure:
The metabolic stability for compounds of the present invention was determined by using cryopreserved primary human hepatocytes. 1×10^6 cells/mL were incubated in the absence and the presence of 5 and 25 μg/mL of the test compounds at 37° C., 5% CO2 for 4 hours, To evaluate the in vitro degradation under assay conditions, a sample of each test compound was incubated also in the absence of hepatocytes. The incubation was stopped by freezing the reaction mixture. After ultrafiltration and washing of the filter with acetonitrile, the sample solution was analyzed for parent compound disappearance or metabolite appearance using LC/MS (ion trap). The metabolic stability value corresponds to the detected parent compound in % after incubation.

Turning to “14-O-{[(1R, 2R, 5S)-5-Amino-2-hydroxy-cyclohexylsulfanyl]-acetyl}-mutilin hydrochloride+(1s, 2S, 5R) diastereomer hydrochloride [Example 2]”, the “parent compounds found (metabolic stability value)” value is recorded as 66%. The figure for “14-O-{[(1R, 3S)-3-Amino-cyclohexylsulfanyl]-acetyl}-mutilin hydrochloride and the (1S, S3R) diastereomer hydrochloride thereof” is 24%.
